For data set [1], the target named is T1, human VPAC2 (Homo sapiens, UniProt P41587).
T1 construct: expressed in transfected cells
T1 sequence (P41587 24-438): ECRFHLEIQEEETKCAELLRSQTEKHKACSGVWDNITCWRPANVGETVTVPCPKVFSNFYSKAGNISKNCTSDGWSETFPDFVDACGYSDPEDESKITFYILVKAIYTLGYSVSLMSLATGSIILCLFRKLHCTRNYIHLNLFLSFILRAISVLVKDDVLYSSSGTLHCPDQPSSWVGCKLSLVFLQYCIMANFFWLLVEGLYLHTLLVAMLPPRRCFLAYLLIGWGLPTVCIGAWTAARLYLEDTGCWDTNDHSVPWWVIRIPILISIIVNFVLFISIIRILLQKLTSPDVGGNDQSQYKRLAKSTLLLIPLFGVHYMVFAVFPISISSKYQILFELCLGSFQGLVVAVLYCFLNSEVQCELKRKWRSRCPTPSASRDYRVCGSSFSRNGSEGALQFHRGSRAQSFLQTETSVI
The experiment in a line: Alpha screen cAMP in vitro potency, human VPAC2 receptor. The format is cell-based. Conditions: cAMP generation; single result from two analyses performed in a single run; read-out: Human VPAC2 Receptor: Alpha Screen EC50. The method in brief: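 Stimulated cAMP accumulation is read by AlphaScreen after 60 min exposure of 50,000 non-enzymatically harvested cells to compound, followed by lysis with donor beads.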

Data set [2] concerns the target T1, human VPAC2. In words: Filter binding assay, membranes of stable VPAC2 cell line, 125I-labeled VIP tracer (Table 2). The note with it: read-out: Human VPAC2 Receptor Binding. An outline of the steps:
(§1)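 Radioligand displacement was measured with 2.5 μg membrane protein per well and roughly 40000 cpm of iodinated tracer. After a 1-hour incubation, bound and free label were separated on BSA-blocked glass-fibre filters and quantified by scintillation.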

The nature of data set [3]: Rat serum stability studies (remaining active peptide by DiscoveRx cAMP on CHO-VPAC2 cells). The format is in vitro ADME. The method in brief: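 EC50 from a DiscoveRx cAMP read-out on CHO-VPAC2 cells indexes how much peptide stays active after 18 h in rat serum at 37° C without aprotinin, against an aprotinin-protected 4° C aliquot.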
The target in a further data set is T2, human VPAC1 (Homo sapiens, UniProt P32241).
T2 sequence (P32241 31-457): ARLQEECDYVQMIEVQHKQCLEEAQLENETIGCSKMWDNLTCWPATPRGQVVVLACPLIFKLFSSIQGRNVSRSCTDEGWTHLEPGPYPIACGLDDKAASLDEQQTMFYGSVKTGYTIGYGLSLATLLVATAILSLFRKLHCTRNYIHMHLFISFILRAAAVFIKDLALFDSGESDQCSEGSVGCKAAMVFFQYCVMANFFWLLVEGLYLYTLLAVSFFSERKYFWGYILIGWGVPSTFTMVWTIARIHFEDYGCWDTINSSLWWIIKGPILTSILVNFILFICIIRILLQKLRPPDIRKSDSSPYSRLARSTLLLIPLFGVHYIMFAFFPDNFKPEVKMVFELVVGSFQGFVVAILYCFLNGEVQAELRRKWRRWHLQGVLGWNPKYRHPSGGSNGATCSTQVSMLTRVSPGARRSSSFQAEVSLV
The experiment in a line: Filter binding assay, membranes of cells transiently transfected with human VPAC1, 125I-labeled VIP tracer (Table 2). The arrangement: expressed in transfected cells. The note with it: read-out: Human VPAC1 Receptor Binding. The method in brief:
as §1

The next data set deals with T3, human PAC1 (Homo sapiens, UniProt P41586).
T3 sequence (P41586 21-468): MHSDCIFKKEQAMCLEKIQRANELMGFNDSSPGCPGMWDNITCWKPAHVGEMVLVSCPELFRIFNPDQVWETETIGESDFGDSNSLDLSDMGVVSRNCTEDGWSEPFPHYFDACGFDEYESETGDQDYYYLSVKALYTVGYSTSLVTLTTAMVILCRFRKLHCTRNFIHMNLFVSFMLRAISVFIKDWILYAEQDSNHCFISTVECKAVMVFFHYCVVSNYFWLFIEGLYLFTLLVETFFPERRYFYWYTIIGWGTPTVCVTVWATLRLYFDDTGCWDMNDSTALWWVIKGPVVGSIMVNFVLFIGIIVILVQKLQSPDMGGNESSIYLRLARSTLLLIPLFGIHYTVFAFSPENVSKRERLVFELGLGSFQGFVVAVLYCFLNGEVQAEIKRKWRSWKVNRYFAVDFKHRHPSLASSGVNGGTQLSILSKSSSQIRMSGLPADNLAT
In words: Filter binding assay, membranes of cells transiently transfected with human PAC1, 125I-labeled PACAP-27 tracer (Table 2). The arrangement: expressed in transfected cells. Conditions: read-out: Human PAC1 Receptor Binding. An outline of the steps:
as §1

Another data set addresses T4, human VPAC1 receptor (human, UniProt P32241 31-457).
T4 sequence (looked up): T2 sequence (P32241 31-457)
In words: cell-based or functional assay.

A further data set deals with T5, human PAC1 receptor (human, UniProt P41586 21-468).
T5 sequence (looked up): T3 sequence (P41586 21-468)
The experiment in a line: cell-based or functional assay.

Another data set has as its target T6, human VPAC2 receptor (human, UniProt P41587 24-438).
T6 sequence (looked up): T1 sequence (P41587 24-438)
In words: cell-based or functional assay.

Where two headings read alike, the source gives them in different places. Where a SMILES comes first, the peptide text is derived from it. Where no end group is shown, it is not given here. [ ]: non-standard residue; d: D form. The star is where a group is joined. hArg = N=C(N)NCCCC[C@H](N)C(=O)O; Hexanoyl = CCCCCC(=O)*; Aib = CC(C)(N)C(=O)O

On to “Hexanoyl-HSDAVFTDNYTRL[Aib]KQVAAQKYLQSIKNKRYGGPSSGAPPPS [Agonist P243]”, for which the EC50 (in general, the concentration needed to bring the measured effect to its halfway point) on human VPAC2 [1] worked out at 0.28 nM. Further, the values for the IC50 at human VPAC2 [2], on human VPAC1 and on human PAC1 were 5.51 nM, more than 3000 nM and more than 25000 nM, respectively. In addition, the “Rat Serum Stability (estimated purity in % after 18 hours)” value in data set [3] is 12.12%.
On the same counts, the results for “Hexanoyl-HSDAVFTDNYTRLRKQVALKKYLQSIKNKRYGGPSSGAPPPS [Agonist P155]” are 0.24 nM, 0.71 nM, 231 nM, 148 nM and 0.25%.
For “Hexanoyl-HSDAVFTDNYTRLQKQVAAK[Aib]YLQSIKNKRYGGPSSGAPPPS [Agonist P251]” the same measures were 0.92 nM, 2.33 nM, more than 3000 nM, more than 25000 nM and 6.63%.
On the same counts, the results for “Hexanoyl-HSDAVFTDNYTRLRKQVAAKFYLQSIKNKRYGGPSSGAPPPS [Agonist P186]” are 0.15 nM, 0.87 nM, 835 nM, 318 nM and 0.25%.
Consider “Hexanoyl-HSDAVFTDNYTRLRKQVAALKYLQSIKNKRYGGPSSGAPPPS [Agonist P151]”, for which the EC50 on human VPAC2 [1] was found to be 0.07 nM. The IC50 on human VPAC2 [2] is 0.72 nM; at human VPAC1 it was 204 nM; on human PAC1, 720 nM. Further, in data set [3], the “Rat Serum Stability (estimated purity in % after 18 hours)” value is on record as 0.35%.
Turning to “Hexanoyl-HSDAVFTDNYTRLRKQVAAFKYLQSIKNKRYGGPSSGAPPPS [Agonist P148]”, at human VPAC2 [1], the EC50 was found to be 0.1 nM. Also, the values for the IC50 on human VPAC2 [2], on human VPAC1 and on human PAC1 were 0.77 nM, 247 nM and 1000 nM, respectively. The “Rat Serum Stability (estimated purity in % after 18 hours)” value in data set [3] is listed as less than 0.10%.
Consider “Hexanoyl-HSDAVFTDNYTRLL[Aib]QVAA[Aib]KYLQSIKNKRYGGPSSGAPPPS [Agonist P317]”, for which the half-maximal effective concentration (EC50) at human VPAC2 [1] is 0.36 nM. Also, the results for the IC50 at human VPAC2 [2], at human VPAC1 and on human PAC1 were 1.23 nM, more than 3000 nM and more than 25000 nM, respectively. In addition, the “Rat Serum Stability (Estimated purity in % after 72 hours)” value in data set [3] was 21.5%. The “Rat Serum Stability (estimated purity in % after 18 hours)” value in data set [3] is listed as 33.34%.
For “Hexanoyl-HSDAVFTDNYTRLQKQVAAKQYLQSIKNKRYGGPSSGAPPPS [Agonist P253]”, on human VPAC2 [1], the EC50 stood at 0.46 nM. For the same molecule, the figures for the IC50 at human VPAC2 [2], at human VPAC1 and on human PAC1 were 1.78 nM, 2160 nM and more than 25000 nM, respectively. The “Rat Serum Stability (estimated purity in % after 18 hours)” value in data set [3] is reported as 1.27%.
For the molecule `CCCCCC(=O)N[C@@H](Cc1c[nH]cn1)C(=O)N[C@@H](CO)C(=O)N[C@@H](CC(=O)O)C(=O)N[C@@H](C)C(=O)N[C@H](C(=O)N[C@@H](Cc1ccccc1)C(=O)N[C@H](C(=O)N[C@@H](CC(=O)O)C(=O)N[C@@H](CC(N)=O)C(=O)N[C@@H](Cc1ccc(O)cc1)C(=O)N[C@H](C(=O)N[C@@H](CCCNC(=N)N)C(=O)N[C@@H](CC(C)C)C(=O)N[C@@H](CCCNC(=N)N)C(=O)NC(C)(C)C(=O)N[C@@H](CCC(N)=O)C(=O)N[C@H](C(=O)N[C@@H](C)C(=O)N[C@@H](C)C(=O)NC(C)(C)C(=O)N[C@@H](CCCCN)C(=O)N[C@@H](Cc1ccc(O)cc1)C(=O)N[C@@H](CC(C)C)C(=O)N[C@@H](CCC(N)=O)C(=O)N[C@@H](CO)C(=O)N[C@H](C(=O)N[C@@H](CCCCN)C(=O)N[C@@H](CCC(N)=O)C(=O)NCC(=O)NCC(=O)N1CCC[C@H]1C(=O)N[C@@H](CO)C(=O)N[C@@H](CO)C(=O)NCC(=O)N[C@@H](C)C(=O)N1CCC[C@H]1C(=O)N1CCC[C@H]1C(=O)N1CCC[C@H]1C(=O)N[C@@H](CO)C(=O)O)[C@@H](C)CC)C(C)C)[C@@H](C)O)[C@@H](C)O)C(C)C` [Agonist P297] (Hexanoyl-HSDAVFTDNYTRLR[Aib]QVAA[Aib]KYLQSIKQGGPSSGAPPPS-OH; C-terminus assumed), the EC50 on human VPAC2 [1] was determined as 0.36 nM. Also, the IC50 on human VPAC2 [2] was 1.95 nM; at human VPAC1, more than 3000 nM; at human PAC1, more than 25000 nM. For the same molecule, in data set [3], the “Rat Serum Stability (estimated purity in % after 18 hours)” value is given as 21.17%.
On to “Hexanoyl-HSDAVFTDNYTRLKKQVAAKKYLQSIKNKRYGGPSSGAPPPS [Agonist P171]”, for which the EC50 at human VPAC2 [1] was 0.82 nM. Moreover, the values for the IC50 on human VPAC2 [2], on human VPAC1 and at human PAC1 were 5.81 nM, 174 nM and 335 nM, respectively. Besides, the “Rat Serum Stability (estimated purity in % after 18 hours)” value in data set [3] is 1.78%.
For “Hexanoyl-HSDAVFTDNYTRLQKQVAAKKYLQSIKNKRYGGPSSGAPPPS [Agonist P172]” the same measures were 0.29 nM, 3.58 nM, 412 nM, 500 nM and 5.95%.
Regarding HSDAVFTDNYTRLRKQVAA[hArg]KYLQSIKNKRYGGPSSGAPPPS (ends and bridges not checked) [P18], the EC50 cAMP, DiscoveRx with human VPAC1 receptor is 0.4 nM; with human PAC1 receptor, more than 50 nM; with human PAC1 receptor (record 2), 435 nM.
On to HSDAVFTDNYTRLRKQVAAIKYLQSIKNKRYGGPSSGAPPPS (not fully specified) [P19], for which the “EC50 cAMP, DiscoveRx” value with human VPAC2 receptor stood at 9.03 nM; in the data set with human VPAC1 receptor, 2.9 nM.
For HSDIVFTDNYTRLRKQVAAKKYLQSIKNKRYGGPSSGAPPPS (not fully specified) [P50] the same measures were 19.2 nM and 111 nM.
For the molecule HSDAVFTDNYTRLRKQVAARKYLQSIKNKRYGGPSSGAPPPS [P20], the “EC50 cAMP, Alpha Screen” value with human VPAC2 receptor turned out to be 2.77 nM. In addition, the “EC50 cAMP, DiscoveRx” value with human VPAC2 receptor is 2.13 nM; with human VPAC1 receptor it was 2 nM; with human PAC1 receptor, more than 25 nM.
For HSDAVFTDNYTRLRKQVAASKYLQSIKNKRYGGPSSGAPPPS [P21] the same measures were 11.6 nM, 6.87 nM, 10.7 nM and more than 100 nM.
On the same counts, the results for HSDAVFTDNYTRLRKQVAAKKYLQSIRNKRYGGPSSGAPPPS [P23] are 2.3 nM, 1.41 nM, 0.9 nM and 98.3 nM.
On to HSDAVFTDNYTRLRKQVAAKKYLQSIKNRRYGGPSSGAPPPS [P25], for which the results for the “EC50 cAMP, DiscoveRx” value with human VPAC2 receptor, in the data set with human VPAC1 receptor and with human PAC1 receptor were 3.02 nM, 2.7 nM and 137 nM, respectively.

Source of the values: patent publication US20080026996A1, “Selective Vpac2 Receptor Reptide Agonists” (ELI LILLY AND COMPANY, priority 2004, published 2008).
